{"source": "patent US10047096B2", "about": "“Substituted pyridobenzodiazepinone-derivatives and use thereof” (Bayer Pharma Aktiengesellschaft, priority 2014, dated 2018)", "note": "Where a name gives a salt, the structure may show the parent alone.", "data": [{"target": "human PDGFRβ (Homo sapiens (Human), UniProt P09619)", "sequence (P09619 561-1106)": "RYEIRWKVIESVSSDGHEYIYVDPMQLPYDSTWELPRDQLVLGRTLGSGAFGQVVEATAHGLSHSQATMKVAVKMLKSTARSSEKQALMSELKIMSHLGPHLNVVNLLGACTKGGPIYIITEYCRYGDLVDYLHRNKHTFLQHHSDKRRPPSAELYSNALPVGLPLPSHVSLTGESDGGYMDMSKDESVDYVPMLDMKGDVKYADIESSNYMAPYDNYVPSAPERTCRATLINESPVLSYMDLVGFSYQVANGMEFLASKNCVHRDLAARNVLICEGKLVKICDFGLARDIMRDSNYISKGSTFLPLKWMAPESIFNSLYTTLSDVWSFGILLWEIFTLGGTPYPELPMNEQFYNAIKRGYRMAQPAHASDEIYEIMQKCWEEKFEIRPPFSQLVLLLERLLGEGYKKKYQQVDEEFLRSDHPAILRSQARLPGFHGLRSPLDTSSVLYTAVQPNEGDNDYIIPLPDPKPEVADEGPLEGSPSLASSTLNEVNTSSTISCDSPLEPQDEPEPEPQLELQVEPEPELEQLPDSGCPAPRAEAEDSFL", "assay": "PDGFRβ kinase assay (PDGFRβ-HTRF)", "format": "biochemical", "conditions": "10 μM ATP; some mean values from multiple determinations", "in_short": "(§1)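 GST-fused human PDGFRβ fragment (R561-L1106) from Sf9 cells was preincubated 15 min with compound in 50 mM HEPES pH 7.5, 10 mM MgCl2, 2.5 mM DTT, 0.01% Triton X-100; substrate was biotinylated poly-Glu,Tyr (4:1).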", "units": {"IC50": "nM"}, "values": [{"smiles": "COCCOCCOCCOCCOCCOCCOCCOCCNCc1ccc2c(c1)NC(=O)c1c(Nc3cc(O)c(C)cc3F)ccnc1N2", "note": "[Example 185, 4-[(2-Fluoro-5-hydroxy-4-methylphenyl)amino]-8-(2,5,8,11,14,17,20,23-octaoxa-26-azaheptacosan-27-yl)-6,11-dihydro-5H-pyrido[2,3-b][1,5]benzodiazepin-5-one]", "IC50": 25}, {"smiles": "Cc1cc(F)c(Nc2ccnc3c2C(=O)Nc2cc(CNC4CCC4)ccc2N3)cc1O", "note": "[Example 188, 8-[(Cyclobutylamino)methyl]-4-[(2-fluoro-5-hydroxy-4-methylphenyl)amino]-6,11-dihydro-5H-pyrido[2,3-b][1,5]benzodiazepin-5-one]", "IC50": 1.75}, {"smiles": "Cc1cc(F)c(Nc2ccnc3c2C(=O)Nc2cc(CNC4CC(F)(F)C4)ccc2N3)cc1O", "note": "[Example 189, 8-{[(3,3-Difluorocyclobutyl)amino]methyl}-4-[(2-fluoro-5-hydroxy-4-methylphenyl)amino]-6,11-dihydro-5H-pyrido[2,3-b][1,5]benzodiazepin-5-one]", "IC50": 2.01}, {"smiles": "Cc1cc(F)c(Nc2ccnc3c2C(=O)Nc2cc(CNC4CC(OC(C)C)C4)ccc2N3)cc1O", "note": "(stereo not drawn) [Example 190, 4-[(2-Fluoro-5-hydroxy-4-methylphenyl)amino]-8-{[(3-isopropoxycyclobutyl)amino]methyl}-6,11-dihydro-5H-pyrido[2,3-b][1,5]benzodiazepin-5-one]", "IC50": 1.22}, {"smiles": "CCOC(=O)[C@H]1C[C@@H](NCc2ccc3c(c2)NC(=O)c2c(Nc4cc(O)c(C)cc4F)ccnc2N3)C1", "note": "[Example 191, cis-Ethyl 3-[({4-[(2-fluoro-5-hydroxy-4-methylphenyl)amino]-5-oxo-6,11-dihydro-5H-pyrido[2,3-b][1,5]benzodiazepin-8-yl}methyl)amino]cyclobutanecarboxylate]", "IC50": 0.626}, {"smiles": "CCOC(=O)[C@H]1C[C@H](NCc2ccc3c(c2)NC(=O)c2c(Nc4cc(O)c(C)cc4F)ccnc2N3)C1", "note": "[Example 192, trans-Ethyl 3-[({4-[(2-fluoro-5-hydroxy-4-methylphenyl)amino]-5-oxo-6,11-dihydro-5H-pyrido[2,3-b][1,5]benzodiazepin-8-yl}methyl)amino]cyclobutanecarboxylate]", "IC50": 1.61}, {"smiles": "Cc1cc(F)c(Nc2ccnc3c2C(=O)Nc2cc(CN[C@H]4C[C@H](C(=O)O)C4)ccc2N3)cc1O", "note": "[Example 195, trans-3-[({4-[(2-Fluoro-5-hydroxy-4-methylphenyl)amino]-5-oxo-6,11-dihydro-5H-pyrido[2,3-b][1,5]benzodiazepin-8-yl}methyl)amino]cyclobutanecarboxylic acid]", "IC50": 1.56}, {"smiles": "Cc1cc(F)c(Nc2ccnc3c2C(=O)Nc2cc(CN4CC(=O)N(C(C)C)C(C)(C)C4)ccc2N3)cc1O", "note": "[Example 196, 4-[(2-Fluoro-5-hydroxy-4-methylphenyl)amino]-8-[(4-isopropyl-3,3-dimethyl-5-oxopiperazin-1-yl)methyl]-6,11-dihydro-5H-pyrido[2,3-b][1,5]benzodiazepin-5-one]", "IC50": 9.38}, {"smiles": "Cc1cc(F)c(Nc2ccnc3c2C(=O)Nc2cc(CN4CCNCC4)ccc2N3)cc1O", "note": "[Example 197, 4-[(2-Fluoro-5-hydroxy-4-methylphenyl)amino]-8-(piperazin-1-ylmethyl)-6,11-dihydro-5H-pyrido[2,3-b][1,5]benzodiazepin-5-one]", "IC50": 0.861}, {"smiles": "CCN(CCN(C)C)Cc1ccc2c(c1)NC(=O)c1c(Nc3cc(O)c(C)cc3F)ccnc1N2", "note": "[Example 199, 8-({[2-(Dimethylamino)ethyl](ethyl)amino}methyl)-4-[(2-fluoro-5-hydroxy-4-methylphenyl)amino]-6,11-dihydro-5H-pyrido[2,3-b][1,5]benzodiazepin-5-one]", "IC50": 1.31}, {"smiles": "CCN(CCN)Cc1ccc2c(c1)NC(=O)c1c(Nc3cc(O)c(C)cc3F)ccnc1N2", "note": "[Example 200, 8-{[(2-Aminoethyl)(ethyl)amino]methyl}-4-[(2-fluoro-5-hydroxy-4-methylphenyl)amino]-6,11-dihydro-5H-pyrido[2,3-b][1,5]benzodiazepin-5-one]", "IC50": 0.727}, {"smiles": "Cc1cc(F)c(Nc2ccnc3c2C(=O)Nc2cc(CN(C)C[C@@H](C)O)ccc2N3)cc1O", "note": "[Example 201, 4-[(2-Fluoro-5-hydroxy-4-methylphenyl)amino]-8-({[(2R)-2-hydroxypropyl](methyl)amino}methyl)-6,11-dihydro-5H-pyrido[2,3-b][1,5]benzodiazepin-5-one]", "IC50": 1.35}, {"smiles": "Cc1cc(F)c(Nc2ccnc3c2C(=O)Nc2cc(CN(C)CCN(C)C)ccc2N3)cc1O", "note": "[Example 203, 8-({[2-(Dimethylamino)ethyl](methyl)amino}methyl)-4-[(2-fluoro-5-hydroxy-4-methylphenyl)amino]-6,11-dihydro-5H-pyrido[2,3-b][1,5]benzodiazepin-5-one]", "IC50": 1.87}, {"smiles": "Cc1cc(F)c(Nc2ccnc3c2C(=O)Nc2cc(CN4C[C@@H](O)[C@@H](O)C4)ccc2N3)cc1O", "note": "[Example 210]", "IC50": 1.03}, {"smiles": "Cc1cc(F)c(Nc2ccnc3c2C(=O)Nc2cc(CN4CCC(N(C)C)CC4)ccc2N3)cc1O", "note": "[Example 211, 8-{[4-(Dimethylamino)piperidin-1-yl]methyl}-4-[(2-fluoro-5-hydroxy-4-methylphenyl)amino]-6,11-dihydro-5H-pyrido[2,3-b][1,5]benzodiazepin-5-one]", "IC50": 1.94}, {"smiles": "Cc1cc(F)c(Nc2ccnc3c2C(=O)Nc2cc(CN4CCC[C@@H](N)C4)ccc2N3)cc1O", "note": "[Example 212, 8-{[(3R)-3-Aminopiperidin-1-yl]methyl}-4-[(2-fluoro-5-hydroxy-4-methylphenyl)amino]-6,11-dihydro-5H-pyrido[2,3-b][1,5]benzodiazepin-5-one]", "IC50": 0.829}, {"smiles": "Cc1cc(F)c(Nc2ccnc3c2C(=O)Nc2cc(CN4CC[C@H](N)C4)ccc2N3)cc1O", "note": "[Example 215, 8-{[(3S)-3-Aminopyrrolidin-1-yl]methyl}-4-[(2-fluoro-5-hydroxy-4-methylphenyl)amino]-6,11-dihydro-5H-pyrido[2,3-b][1,5]benzodiazepin-5-one]", "IC50": 2.06}, {"smiles": "Cc1cc(F)c(Nc2ccnc3c2C(=O)Nc2cc(CN4CC[C@@H](N)C4)ccc2N3)cc1O", "note": "[Example 216, 8-{[(3R)-3-Aminopyrrolidin-1-yl]methyl}-4-[(2-fluoro-5-hydroxy-4-methylphenyl)amino]-6,11-dihydro-5H-pyrido[2,3-b][1,5]benzodiazepin-5-one]", "IC50": 1.12}, {"smiles": "Cc1cc(F)c(Nc2ccnc3c2C(=O)Nc2cc(CN4CC[C@@H](N(C)C)C4)ccc2N3)cc1O", "note": "[Example 217, 8-{[(3R)-3-(Dimethylamino)pyrrolidin-1-yl]methyl}-4-[(2-fluoro-5-hydroxy-4-methylphenyl)amino]-6,11-dihydro-5H-pyrido[2,3-b][1,5]benzodiazepin-5-one]", "IC50": 3.39}, {"smiles": "Cc1cc(F)c(Nc2ccnc3c2C(=O)Nc2cc(CN4CCC(N)CC4)ccc2N3)cc1O", "note": "[Example 218, 8-[(4-Aminopiperidin-1-yl)methyl]-4-[(2-fluoro-5-hydroxy-4-methylphenyl)amino]-6,11-dihydro-5H-pyrido[2,3-b][1,5]benzodiazepin-5-one]", "IC50": 1.06}]}, {"target": "human PDGFRβ (Homo sapiens (Human), UniProt P09619)", "assay": "PDGFRβ kinase assay (PDGFRβ-HTRF)", "format": "biochemical", "conditions": "10 μM ATP; some mean values from multiple determinations; hydrochloride", "in_short": "as §1", "units": {"IC50": "nM"}, "values": [{"smiles": "CCN(CC)Cc1ccc2c(c1)NC(=O)c1c(Nc3cc(O)c(C)cc3F)ccnc1N2", "note": "[Example 193, 8-[(Diethylamino)methyl]-4-[(2-fluoro-5-hydroxy-4-methylphenyl)amino]-6,11-dihydro-5H-pyrido[2,3-b][1,5]benzodiazepin-5-one hydrochloride]", "IC50": 3.22}]}]}
